Reference: patent publication US20240374763A1, “DIAGNOSIS AND MONITORING USING EXTRADOMAIN-B FIBRONECTIN TARGETED PROBES” (Case Western Reserve University, priority 2020, published 2024)
No end group written: not given here.

How the values were obtained:
Format in all cases: in vivo, mice
[1] = tested on: RKO-DR tumors; test: MRMI of EDB-FN with MT218, RKO-DR xenografts
Experimental: (§1) Nude athymic mice (6-week-old nu/nu females) were purchased from The Jackson Laboratory (Bar Harbor, […]) and housed in the Animal Facility at CWRU. All the animal experiments were performed according to the protocol approved by the IACUC of CWRU. For assessment of drug resistance, 2 drug-resistant and 2 non-drug-resistant models were set up. About 3-4×10^6 DLD-1, RKO, DLD1-DR, and RKO-DR cells suspended in Matrigel-PBS mixture (1:1) were subcutaneously injected in the left flanks of nude mice (100 μL per mouse, 5 mice per group×4 models=20 mice). After 9 days when the tumors reached 100-200 mm3, MRMI was performed on the 4 xenograft models with 40 μmol/kg dose of MT218. The animals were then euthanized, and the tumors were harvested for post-mortem histology and IHC.
MT218 was synthesized as previously described. Ayat, N. R., et al., ACS Med Chem Lett, 2018. 9(7): p. 730-735. Briefly, click reaction between alkynyl-ZD2 and N3-Gd(HP-DO3A) was performed in the presence of CuSO4 and ascorbate at room temperature, followed by FLASH chromatography purification and validation of MT218 by MALDI-TOF mass spectrometry (m.w. 1443). For assessment of drug resistance and therapeutic monitoring, MRMI was performed in a 3T MRS 3000 scanner (MR Solutions, Surrey, UK) with a mouse short quad coil. The mice were anesthetized with isofluorane and tail vein catheter was setup. T1-weighted MR images were obtained before (pre-contrast) and 25 min after injection (post-contrast) of 40 μmol/kg dose of MT218 [ZD2-N3—Gd(HP-DO3A)]. The following two sequences were used with respiratory gating: axial fast spin echo (FSE) (TR=305 ms, TE=11 ms, FA=90°, FOV=40 mm×40 mm, slice thickness=1 mm, slice number=15, Nav=2, matrix=256×256) and coronal FSE (TR=305 ms, TE=11 ms, FA=90°, FOV=90 mm×90 mm, slice thickness=1 mm, slice number=20, Nav=1, matrix=248×512). […] Contrast-to-noise ratios (CNRs) were calculated as (mean tumor intensity—mean muscle intensity)/standard deviation of noise. […]

[2] = tested on: MDA-MB-231 tumors; test: MRMI-mediated monitoring of therapeutic response, MDA-MB-231 tumors; details: pretreatment MDA-MB-231 tumors, MT218 0.1 mmol/kg, first 30 min
Experimental: The targeted MRI contrast agent ZD2-N3-Gd(HP-DO3A) (MT218) was provided by Molecular Theranostics (Cleveland, OH) and was synthesized. MR images of the mice bearing MDA-MB-231 or Hs578T tumors were acquired on a 3T MRS 3000 scanner (MRS Solutions, Surrey, UK) with a mouse short quad coil. T1-weighted images were acquired following intravenous injection of MT218 at dose of 0.1 mmol/kg using a fast spin echo (FSE) axial sequence with respiratory gating (TR=305 ms, TE=11 ms, FA=90°, FOV=40×40 mm, slice thickness=1 mm, slice number=15, Nav=2, matrix=256×256). Images were acquired before and at 10, 20, and 30 min after injection of MT218. MRMI was performed before the treatment and then at week 6 post-nanoparticle treatments for MDA-MB-231 and Hs578T tumors. MRI data and image processing was conducted using FIJI (FIJI is just ImageJ) software. The contrast-to-noise ratios (CNRs) of tumors were calculated as the difference of the mean tumor intensity and the mean muscle intensity divided by the standard deviation of the noise.

[3] = tested on: LNCaP tumors; test: MRMI with MT218, LNCaP xenografts; details: 0.04 mmol Gd/kg, 20 min post-injection
From the text: Xenograft models were established by subcutaneous flank injections in athymic nu/nu mice for the 4 prostate cancer cells and tested with MRMI using 0.04 mmol Gd/kg of MT218.

[4] = tested on: RKO tumors; test: MRMI of EDB-FN with MT218, RKO xenografts; details: 40 μmol/kg MT218, 25 min post-injection
Experimental: as §1
MT218 was synthesized as previously described. Ayat, N. R., et al., ACS Med Chem Lett, 2018. 9(7): p. 730-735. Briefly, click reaction between alkynyl-ZD2 and N3-Gd(HP-DO3A) was performed in the presence of CuSO4 and ascorbate at room temperature, followed by FLASH chromatography purification and validation of MT218 by MALDI-TOF mass spectrometry (m.w. 1443). […] Contrast-to-noise ratios (CNRs) were calculated as (mean tumor intensity—mean muscle intensity)/standard deviation of noise. […]

[5] = RKO-DR over RKO tumors, 40 μmol/kg MT218

ZD2-N3-Gd(HP-DO3A) (TVRTSAD; also: conjugated to Gd(HP-DO3A) by click reaction of alkynyl-ZD2 with N3-Gd(HP-DO3A), residue of attachment not given here, Gd complex) [MT218, EDB-FN-targeted MRI contrast agent; ZD2 peptide conjugated to the clinical macrocyclic agent Gd(HP-DO3A)]
higher CNRs over the non-resistant tumors [1, 5]: 1.8 fold | increase in CNR over the non-resistant tumors [1, 5]: 84% | higher CNRs over pre-contrast ([1]; RKO-DR tumors, 40 μmol/kg MT218, 25 min post-injection): 2.6 fold | signal enhancement vs pre-contrast [2]: Strong signal enhancement | increase in CNR [3]: negligible | increase in CNRs over the pre-contrast [4]: 1.4 fold
